This is an account of results in ChEMBL document CHEMBL1201862, “PubChem BioAssay data set” (2004).

Among the test systems are SF-539; OVCAR-8; OVCAR-3; MDA-N; MDA-MB-231; SW-620; HOP-62; PC-3; DU-145; MOLT-4; A498; KM12; UACC-62; NCI/ADR-RES; IGROV-1; COLO 205; A549; SK-MEL-2; MCF7; Hs-578T.
Assay in all cases: growth of human tumour cells (NCI), 48 h

Structures are written as SMILES.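 The compound was tested at five concentrations on cells cultured in 96-well plates, with a 48-hour exposure period. GI50 marks 50% less growth.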 Calls of active or inactive are those of the source. Rule as the data show it: active = GI50 up to about 1.1 µM and inactive = higher.

Regarding `COC12OC3CC4(C)C(=CC3OC(OC(C)C1O)C2O)CCC1C4CCC2(C)C(c3ccc(=O)oc3)CCC12O` (stereo not given), the GI50 in the experiment with SF-539 was 0.00126 µM (active); in the experiment with OVCAR-8, 0.00144 µM (active); with OVCAR-3, 0.00155 µM (active); with MDA-N it was 0.00215 µM (active); in the experiment on MDA-MB-231, 0.00281 µM (active); in the experiment on SW-620, 0.00178 µM (active). Besides, the GI50 was 0.00137 µM (active) with HOP-62; 0.00142 µM (active) in the experiment on PC-3; 0.00129 µM (active) with DU-145; 0.00105 µM (active) in the experiment with MOLT-4; 0.00309 µM (active) in the experiment with A498; 0.00247 µM (active) in the experiment with KM12. For the same molecule, the GI50 in the experiment on UACC-62 was 0.00233 µM (active); in the experiment with NCI/ADR-RES it was 0.00151 µM (active); in the experiment with IGROV-1, 0.00171 µM (active); in the experiment with COLO 205, 0.00196 µM (active); in the experiment with A549 it was 0.00119 µM (active); with SK-MEL-2 it was 0.00205 µM (active). Besides, the GI50 is 0.00178 µM (active) in the experiment on MCF7 and < 0.001 µM (active) in the experiment on Hs-578T.

Turning to `O=[N+]([O-])c1cc(Cl)ccc1Sc1ccccc1`, the GI50 in the experiment on SF-539 was > 100 µM (inactive); in the experiment with OVCAR-8 it was > 100 µM (inactive); in the experiment with OVCAR-3, > 100 µM (inactive); in the experiment on MDA-N it was 98.4 µM (inactive); in the experiment on MDA-MB-231 it was > 100 µM (inactive); in the experiment with SW-620, > 100 µM (inactive). The GI50 was > 100 µM (inactive) with HOP-62; > 100 µM (inactive) with PC-3; > 100 µM (inactive) in the experiment on DU-145; 56.1 µM (inactive) in the experiment on MOLT-4; > 100 µM (inactive) with A498; 98.6 µM (inactive) with KM12. Besides, the GI50 in the experiment with UACC-62 is > 100 µM (inactive); with NCI/ADR-RES, > 100 µM (inactive); with IGROV-1, > 100 µM (inactive); with COLO 205 it was > 100 µM (inactive); in the experiment with A549, > 100 µM (inactive); in the experiment with SK-MEL-2 it was 44.8 µM (inactive). The GI50 with MCF7 and in the experiment on Hs-578T was > 100 µM (inactive) each time.

Regarding `COc1cc(/C=C2\N=C(c3ccccc3)N(c3nc4ccccc4s3)C2=O)cc(OC)c1OC`, the GI50 with SF-539 is 32.3 µM (inactive); in the experiment on OVCAR-8, 31 µM (inactive); with OVCAR-3, 20 µM (inactive); in the experiment with MDA-N, 15.3 µM (inactive); with MDA-MB-231, 40.3 µM (inactive); in the experiment with SW-620, 31.3 µM (inactive). Further, the GI50 in the experiment with HOP-62 was 24.4 µM (inactive); with PC-3, 50.5 µM (inactive); with DU-145, 34.1 µM (inactive); in the experiment with MOLT-4, 11.7 µM (inactive); in the experiment with A498, 52.7 µM (inactive); with KM12 it was 31.3 µM (inactive). Also, the GI50 in the experiment with NCI/ADR-RES is 20.4 µM (inactive); in the experiment with IGROV-1 it was 28.6 µM (inactive); in the experiment with A549, 29.6 µM (inactive); in the experiment with SK-MEL-2, 90.8 µM (inactive); in the experiment on MCF7, 31.3 µM (inactive); in the experiment on Hs-578T, 17.3 µM (inactive).

On to `Cc1ccccc1C1=C/C(=C(\SS/C(C(=O)c2ccc(OCC(=O)O)c(Cl)c2Cl)=C2\C=C(c3ccccc3C)SS2)C(=O)c2ccc(OCC(=O)O)c(Cl)c2Cl)SS1`, for which the GI50 in the experiment with SF-539 was 17.2 µM (inactive); in the experiment with OVCAR-8, 26.3 µM (inactive); with OVCAR-3, 16.5 µM (inactive); with MDA-N, 34.1 µM (inactive); in the experiment with MDA-MB-231, 22.6 µM (inactive); in the experiment on SW-620 it was 26.5 µM (inactive). The GI50 in the experiment on HOP-62 was 51.6 µM (inactive); with PC-3, 6.92 µM (inactive); with DU-145, 39.4 µM (inactive); with MOLT-4, 19.9 µM (inactive); with A498, 32.4 µM (inactive); in the experiment with KM12, 22.3 µM (inactive). Besides, the GI50 is 18 µM (inactive) with UACC-62; 63 µM (inactive) in the experiment on NCI/ADR-RES; 16.4 µM (inactive) with IGROV-1; 12.2 µM (inactive) with COLO 205; 46.9 µM (inactive) in the experiment with A549; 21.4 µM (inactive) in the experiment with SK-MEL-2. Besides, the GI50 in the experiment with MCF7 is 31.4 µM (inactive); in the experiment with Hs-578T it was 21.2 µM (inactive).

In the case of `CCOC(=O)c1c(NC(=O)c2cccs2)sc2c1CCC2`, the GI50 in the experiment with SF-539, in the experiment with OVCAR-8, in the experiment with OVCAR-3, in the experiment on MDA-N, in the experiment on MDA-MB-231 and in the experiment with HOP-62 was > 100 µM (inactive) each time. The GI50 in the experiment on PC-3, in the experiment with DU-145, in the experiment with MOLT-4, in the experiment with A498, in the experiment on KM12 and in the experiment on UACC-62 was > 100 µM (inactive) throughout. In addition, the GI50 with NCI/ADR-RES, in the experiment on IGROV-1, with COLO 205, in the experiment on A549, in the experiment with SK-MEL-2 and in the experiment on MCF7 was > 100 µM (inactive) each time. For the same molecule, the GI50 in the experiment on Hs-578T is > 100 µM (inactive).

Consider `CC(=O)OCC(Br)C1(C)CCC(C(C)(C)Br)O1` (stereo not given), for which the GI50 in the experiment on SF-539 is > 100 µM (inactive); in the experiment with OVCAR-3, 59.2 µM (inactive); with MDA-N, 44.7 µM (inactive); in the experiment on MDA-MB-231, > 100 µM (inactive); in the experiment on SW-620 it was 55.6 µM (inactive); in the experiment on HOP-62 it was > 100 µM (inactive). The GI50 is 29.4 µM (inactive) with PC-3; > 100 µM (inactive) with DU-145; 73.8 µM (inactive) in the experiment with MOLT-4; > 100 µM (inactive) with A498; 39.8 µM (inactive) in the experiment with KM12; > 100 µM (inactive) in the experiment with NCI/ADR-RES. For the same molecule, the GI50 with IGROV-1 is 80.2 µM (inactive); in the experiment on COLO 205 it was 51.2 µM (inactive); in the experiment on A549 it was 63.8 µM (inactive); in the experiment with SK-MEL-2, 39.1 µM (inactive); with MCF7, 56.4 µM (inactive); with Hs-578T it was 17.9 µM (inactive).

Regarding `C=CCN1C(=O)/C(=C/c2ccccc2)N=C1SC1OC(COC(C)=O)C(OC(C)=O)C(OC(C)=O)C1OC(C)=O` (stereo not given), the GI50 with OVCAR-8 is 29.5 µM (inactive); in the experiment on OVCAR-3 it was 19.3 µM (inactive); in the experiment with MDA-N, 29 µM (inactive); in the experiment on MDA-MB-231, 18.6 µM (inactive); with SW-620, 28.5 µM (inactive); in the experiment on HOP-62 it was 37.8 µM (inactive). In addition, the GI50 in the experiment on PC-3 is 16.5 µM (inactive); in the experiment with DU-145 it was 26.6 µM (inactive); in the experiment on MOLT-4, 19.9 µM (inactive); in the experiment with A498 it was 38.1 µM (inactive); in the experiment on KM12 it was 39.9 µM (inactive); with UACC-62, 14.4 µM (inactive). The GI50 with NCI/ADR-RES was 26.2 µM (inactive); in the experiment with IGROV-1, 28.3 µM (inactive); in the experiment with A549 it was 34 µM (inactive); with SK-MEL-2, 18.5 µM (inactive); with MCF7 it was 28.5 µM (inactive); in the experiment with Hs-578T it was 25.5 µM (inactive).

On to `CC1(C)N=C(N)N=C(N)N1CCCCc1ccccc1`, for which the GI50 with SF-539 is 0.34 µM (active); with OVCAR-8, 0.251 µM (active); in the experiment on OVCAR-3 it was 0.601 µM (active); in the experiment with MDA-N it was 0.046 µM (active); with MDA-MB-231 it was > 64.9 µM (inactive); in the experiment on HOP-62 it was 1.18 µM (inactive). Besides, the GI50 in the experiment on PC-3 was 9.51 µM (inactive); with DU-145 it was 3.57 µM (inactive); in the experiment on MOLT-4, 0.104 µM (active); in the experiment with A498, 2.08 µM (inactive); with KM12 it was 0.689 µM (active); with UACC-62, 0.453 µM (active). In addition, the GI50 is > 90.2 µM (inactive) with NCI/ADR-RES; 0.232 µM (active) in the experiment with IGROV-1; 0.433 µM (active) with COLO 205; 0.113 µM (active) in the experiment with A549; > 32.9 µM (inactive) in the experiment on SK-MEL-2; 0.838 µM (active) in the experiment on MCF7. In addition, the GI50 in the experiment on Hs-578T is 3.21 µM (inactive).

On to `CC(=O)OCC12C(OC(C)=O)C[C@@H](C)C3(CC(c4ccoc4)OC3=O)C1CCC(O)C21CO1` (stereo not given in full), for which the GI50 in the experiment on SF-539, in the experiment with OVCAR-8, in the experiment on OVCAR-3, with MDA-N, in the experiment on MDA-MB-231 and with HOP-62 was > 100 µM (inactive) throughout. The GI50 with PC-3, in the experiment with DU-145, in the experiment with MOLT-4, in the experiment on A498, with KM12 and in the experiment with UACC-62 was > 100 µM (inactive) each time. Further, the GI50 in the experiment with NCI/ADR-RES, in the experiment on IGROV-1, in the experiment with COLO 205, in the experiment with A549, in the experiment on SK-MEL-2 and in the experiment with MCF7 was > 100 µM (inactive) throughout. The GI50 with Hs-578T is > 100 µM (inactive).

For the molecule `O=C1Nc2ccccc2/C1=C\c1c(Cl)nc2n1CCS2`, the GI50 in the experiment on OVCAR-8 is 34.4 µM (inactive); in the experiment with OVCAR-3, 20.4 µM (inactive); in the experiment with MDA-N it was 15.7 µM (inactive); with MDA-MB-231 it was 19 µM (inactive); with SW-620, 31.3 µM (inactive); in the experiment with HOP-62 it was 29 µM (inactive). Moreover, the GI50 was 24.5 µM (inactive) in the experiment on PC-3; 30.6 µM (inactive) in the experiment with DU-145; 30.4 µM (inactive) with MOLT-4; 18.8 µM (inactive) with A498; 17.9 µM (inactive) with KM12; 13.5 µM (inactive) in the experiment with UACC-62. The GI50 is 23.6 µM (inactive) in the experiment on NCI/ADR-RES; 32.7 µM (inactive) in the experiment with IGROV-1; 17.9 µM (inactive) in the experiment on COLO 205; 31.3 µM (inactive) in the experiment on A549; 14.1 µM (inactive) with SK-MEL-2; 13 µM (inactive) in the experiment on MCF7. Moreover, the GI50 in the experiment with Hs-578T is 16.6 µM (inactive).
